# Legend:
# [1] = system: OPM-2 human multiple myeloma cell line; experiment: Cell Viability Assay (OPM-2 10 FBS); format: cell-based; settings: Homo sapiens, OPM-2, 16 h, OPM-2 cells, 16 h, CellTiter-Glo
# Outline: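 IC50 from 4-parameter logistic fit of CellTiter-Glo luminescence. 3000 cells/well, 10% FBS medium, serial compound dilutions, 16 h, 37 °C/5% CO2; read 25 min post-reagent.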
# [2] = target: T1, Mcl-1/Bim interaction, recombinant human Mcl-1 (171-327) (Homo sapiens, UniProt Q07820); experiment: Cell free Mcl-1: Bim Affinity Assay (Mcl-1 HTRF); format: binding; settings: TR-FRET, 0.1 nM Mcl-1 (171-327), 0.05 nM biotin-Bim (51-76)
# T1 construct: made in house
# T1 sequence (Q07820 171-327): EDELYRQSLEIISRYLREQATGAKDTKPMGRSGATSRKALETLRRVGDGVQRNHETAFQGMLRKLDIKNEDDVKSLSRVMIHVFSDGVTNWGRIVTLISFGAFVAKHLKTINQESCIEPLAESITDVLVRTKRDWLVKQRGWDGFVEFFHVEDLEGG
# Outline: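 Displacement of biotinylated Bim 51-76 peptide is followed by TR-FRET. Incubation runs overnight. Duplicate points are fitted with a four-parameter sigmoid to yield IC50.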
Structure (SMILES),IC50 [1],IC50 [2]
"CO[C@H]1C[C@@H](N2[C@@H](C)C/C=C/[C@H](O)[C@@H]3CC[C@H]3CN3C[C@@]4(CCCc5cc(Cl)ccc54)COc4ccc(cc43)C(=O)NS2(=O)=O)C1 [Example 77, (1S,3′R,6′R,7′S,8′E,11′S)-6-chloro-7′-hydroxy-12′-(cis-3-methoxycyclobutyl)-11′-methyl-3,4-dihydro-2H,15′H-spiro[naphthalene-1,22′-[20]oxa[13]thia[1,12,14]triazatetracyclo[14.7.2.0^3,6.0^19,24]pentacosa[8,16,18,24]tetraen]-15′-one 13′,13′-dioxide]",442 nM,0.593 nM
"CO[C@H]1C[C@@H](N2[C@@H](C)C/C=C\[C@H](O)[C@@H]3CC[C@H]3CN3C[C@@]4(CCCc5cc(Cl)ccc54)COc4ccc(cc43)C(=O)NS2(=O)=O)C1 [Example 78, (1S,3′R,6′R,7′S,8′Z,11′S)-6-chloro-7′-hydroxy-12′-(cis-3-methoxycyclobutyl)-11′-methyl-3,4-dihydro-2H,15′H-spiro[naphthalene-1,22′-[20]oxa[13]thia[1,12,14]triazatetracyclo[14.7.2.0^3,6.0^19,24]pentacosa[8,16,18,24]tetraen]-15′-one 13′,13′-dioxide]",587 nM,1.45 nM
"COC1CC(N2[C@H](C)C/C=C/[C@H](O)[C@@H]3CC[C@H]3CN3C[C@@]4(CCCc5cc(Cl)ccc54)COc4ccc(cc43)C(=O)NS2(=O)=O)C1 (stereo partly drawn) [Example 79, (1S,3′R,6′R,7′S,8′E,11R)-6-chloro-7′-hydroxy-12′-(cis-3-methoxycyclobutyl)-11′-methyl-3,4-dihydro-2H,15′H-spiro[naphthalene-1,22′-[20]oxa[13]thia[1,12,14]triazatetracyclo[14.7.2.0^3,6.0^19,24]pentacosa[8,16,18,24]tetraen]-15′-one 13′,13′-dioxide]",3620 nM,4.18 nM
"COCCO[C@H]1/C=C/C[C@H](C)N(Cc2ccc(OC)cc2)S(=O)(=O)NC(=O)c2ccc3c(c2)N(C[C@@H]2CC[C@H]21)C[C@@]1(CCCc2cc(Cl)ccc21)CO3 [Example 82, (1S,3′R,6′R,7′S,8′E,11′S)-6-chloro-12′-(4-methoxybenzyl)-7′-(2-methoxyethoxy)-11′-methyl-3,4-dihydro-2H,15′H-spiro[naphthalene-1,22′-[20]oxa[13]thia[1,12,14]triazatetracyclo[14.7.2.0^3,6.0^19,24]pentacosa[8,16,18,24]tetraen]-15′-one 13′,13′-dioxide]",2920 nM,7.8 nM
"C[C@H]1C/C=C/[C@H](O)[C@@H]2CC[C@H]2CN2C[C@@]3(CCCc4cc(Cl)ccc43)COc3ccc(cc32)C(=O)NS(=O)(=O)N1C [Example 83, (1S,3′R,6′R,7′S,8′E,11′S)-6-chloro-7′-hydroxy-11′,12′-dimethyl-3,4-dihydro-2H,15′H-spiro[naphthalene-1,22′-[20]oxa[13]thia[1,12,14]triazatetracyclo[14.7.2.0^3,6.0^19,24]pentacosa[8,16,18,24]tetraen]-15′-one 13′,13′-dioxide]",487 nM,0.419 nM
"CCN1[C@H](C)CCC[C@H](O)[C@@H]2CC[C@H]2CN2C[C@@]3(CCCc4cc(Cl)ccc43)COc3ccc(cc32)C(=O)NS1(=O)=O [Example 84, (1S,3′R,6′R,7′S,11R)-6-chloro-12′-ethyl-7′-hydroxy-11′-methyl-3,4-dihydro-2H,15′H-spiro[naphthalene-1,22′-[20]oxa[13]thia[1,12,14]triazatetracyclo[14.7.2.0^3,6.0^19,24]pentacosa[16,18,24]trien]-15′-one 13′,13′-dioxide]",5900 nM,13.2 nM
"CCN1[C@@H](C)CCC[C@H](O)[C@@H]2CC[C@H]2CN2C[C@@]3(CCCc4cc(Cl)ccc43)COc3ccc(cc32)C(=O)NS1(=O)=O [Example 85, (1S,3′R,6′R,7′S,11′S)-6-chloro-12′-ethyl-7′-hydroxy-11′-methyl-3,4-dihydro-2H,15′H-spiro[naphthalene-1,22′-[20]oxa[13]thia[1,12,14]triazatetracyclo[14.7.2.0^3,6.0^19,24]pentacosa[16,18,24]trien]-15′-one 13′,13′-dioxide]",1910 nM,1.88 nM
"C=CCN1CCCC[C@H](O)[C@@H]2CC[C@H]2CN2C[C@@]3(CCCc4cc(Cl)ccc43)COc3ccc(cc32)C(=O)NS1(=O)=O [Example 87, (1S,3′R,6′R,7′S)-6-chloro-7′-hydroxy-12′-(2-propen-1-yl)-3,4-dihydro-2H,15′H-spiro[naphthalene-1,22′-[20]oxa[13]thia[1,12,14]triazatetracyclo[14.7.2.0^3,6.0^19,24]pentacosa[16,18,24]trien]-15′-one 13′,13′-dioxide]",3540 nM,3.31 nM
"CCN1CC/C=C/[C@H](OCc2cscn2)[C@@H]2CC[C@H]2CN2C[C@@]3(CCCc4cc(Cl)ccc43)COc3ccc(cc32)C(=O)NS1(=O)=O [Example 88, (1S,3′R,6′R,7′S,8′E)-6-chloro-12′-ethyl-7′-(1,3-thiazol-4-ylmethoxy)-3,4-dihydro-2H,15′H-spiro[naphthalene-1,22′-[20]oxa[13]thia[1,12,14]triazatetracyclo[14.7.2.0^3,6.0^19,24]pentacosa[8,16,18,24]tetraen]-15′-one 13′,13′-dioxide]",1040 nM,1.71 nM
"CCN1CC/C=C/[C@H](OCC(=O)N2CCCC2)[C@@H]2CC[C@H]2CN2C[C@@]3(CCCc4cc(Cl)ccc43)COc3ccc(cc32)C(=O)NS1(=O)=O [Example 89, (1S,3′R,6′R,7′S,8′E)-6-chloro-12′-ethyl-7′-(2-oxo-2-(1-pyrrolidinyl)ethoxy)-3,4-dihydro-2H,15′H-spiro[naphthalene-1,22′-[20]oxa[13]thia[1,12,14]triazatetracyclo[14.7.2.0^3,6.0^19,24]pentacosa[8,16,18,24]tetraen]-15′-one 13′,13′-dioxide]",798 nM,0.666 nM
"COCCO[C@H]1/C=C/C[C@@H]2CC[C@H]2S(=O)(=O)NC(=O)c2ccc3c(c2)N(C[C@@H]2CC[C@H]21)C[C@@]1(CCCc2cc(Cl)ccc21)CO3 [Example 93, (1S,3′R,6′R,7′S,8′E,11′S,14′R)-6-chloro-7′-(2-methoxyethoxy)-3,4-dihydro-2H,17′H-spiro[naphthalene-1,24′-[22]oxa[15]thia[1,16]diazapentacyclo[16.7.2.0^3,6.0^11,14.0^21,26]heptacosa[8,18,20,26]tetraen]-17′-one 15′,15′-dioxide]",402 nM,0.494 nM
"Cn1cnc(CO[C@H]2/C=C/C[C@H]3CC[C@@H]3S(=O)(=O)NC(=O)c3ccc4c(c3)N(C[C@@H]3CC[C@H]32)C[C@@]2(CCCc3cc(Cl)ccc32)CO4)n1 [Example 94, (1S,3′R,6′R,7′S,8′E,11′R,14′S)-6-chloro-7′-((1-methyl-1H-1,2,4-triazol-3-yl)methoxy)-3,4-dihydro-2H,17′H-spiro[naphthalene-1,24′-[22]oxa[15]thia[1,16]diazapentacyclo[16.7.2.0^3,6.0^11,14.0^21,26]heptacosa[8,18,20,26]tetraen]-17′-one 15′,15′-dioxide]",432 nM,0.467 nM
"CO[C@H]1/C=C/C[C@H]2CC[C@@H]2S(=O)(=O)NC(=O)c2ccc3c(c2)N(C[C@@H]2CC[C@H]21)C[C@@]1(CCCc2cc(Cl)ccc21)CO3 [Example 95, (1S,3′R,6′R,7′S,8′E,11′R,14′S)-6-chloro-7′-methoxy-3,4-dihydro-2H,17′H-spiro[naphthalene-1,24′-[22]oxa[15]thia[1,16]diazapentacyclo[16.7.2.0^3,6.0^11,14.0^21,26]heptacosa[8,18,20,26]tetraen]-17′-one 15′,15′-dioxide]",572 nM,0.46 nM
"O=C1NS(=O)(=O)[C@H]2C[C@@H](CC[C@H](O)[C@@H]3CC[C@H]3CN3C[C@@]4(CCCc5cc(Cl)ccc54)COc4ccc1cc43)C2 [Example 101, (1S,3′R,6′R,7′S,10′S,12′S)-6-chloro-7′-hydroxy-3,4-dihydro-2H,15′H-spiro[naphthalene-1,22′-[20]oxa[13]thia[1,14]diazapentacyclo[14.7.2.1^10,120^3,6.0^19,24]hexacosa[16,18,24]trien]-15′-one 13′,13′-dioxide]",13000 nM,2.58 nM
"O=C1NS(=O)(=O)[C@H]2C[C@H](/C=C/[C@H](O)[C@@H]3CC[C@H]3CN3C[C@@]4(CCCc5cc(Cl)ccc54)COc4ccc1cc43)C2 [Example 102, (1S,3′R,6′R,7′S,8′E,10′R,12′S)-6-chloro-7′-hydroxy-3,4-dihydro-2H,15′H-spiro[naphthalene-1,22′-[20]oxa[13]thia[1,14]diazapentacyclo[14.7.2.1^10,12.0^3,6.0^19,24]hexacosa[8,16,18,24]tetraen]-15′-one 13′,13′-dioxide]",18600 nM,2.73 nM
"C[C@@H]1[C@@H](C)C[C@H](CCO)/C=C/[C@@H]2CC[C@H]2CN2C[C@@]3(CCCc4cc(Cl)ccc43)COc3ccc(cc32)C(=O)NS1(=O)=O [Example 113, (1S,3′R,6′S,7′E,9′R,11′S,12′R)-6-chloro-9′-(2-hydroxyethyl)-11′,12′-dimethyl-3,4-dihydro-2H,15′H-spiro[naphthalene-1,22′-[20]oxa[13]thia[1,14]diazatetracyclo[14.7.2.0^3,6.0^19,24]pentacosa[7,16,18,24]tetraen]-15′-one 13′,13′-dioxide]",1150 nM,0.998 nM
"COCC[C@@H]1/C=C/[C@@H]2CC[C@H]2CN2C[C@@]3(CCCc4cc(Cl)ccc43)COc3ccc(cc32)C(=O)NS(=O)(=O)[C@H](C)[C@@H](C)C1 [Example 114, (1S,3′R,6′S,7′E,9′R,11′S,12′R)-6-chloro-9′-(2-methoxyethyl)-11′,12′-dimethyl-3,4-dihydro-2H,15′H-spiro[naphthalene-1,22′-[20]oxa[13]thia[1,14]diazatetracyclo[14.7.2.0^3,6.0^19,24]pentacosa[7,16,18,24]tetraen]-15′-one 13′,13′-dioxide]",3400 nM,3.6 nM
